In patent EP1793002A1 (priority 2004, dated 2006):
Read-outs that look alike come from different tables or passages of the source.

How the values were obtained:
[1] = biological target: T1, luciferase standard enzyme (Photinus pyralis, UniProt P08659); settings: 2 mM; for Max RLU / Max Time: with 2 mM sodium diethyldithiocarbamate, 10% glycerol; for Max RLU%: relative to the system without pyrophosphoric acid (no PPi)
Description: A "luciferase luminescent reagent" containing 20 mM tricine, 1.07 mM (MgCO3)4Mg(OH)2.5H2O, 2.67 mM magnesium sulfate, 0.1 mM EDTA, 470 µM luciferin and 530 µM adenosine triphosphate (ATP), pH 7.8 was prepared in accordance with the formulation described in the instructions included in "PicaGene Luminescent Kit" (Toyo Ink Manufacturing Co., Ltd.; product No. PGL100), except that 270 µM CoA and 33.3 mM DTT (thiol reagents) mentioned in the instructions were not added. […] In both reagents thus prepared, glycerol (final concentration: 10%) was allowed to co-exist in order to promote stabilization of luciferase enzyme.
A luciferase enzyme solution (100 ng/ml) was prepared by diluting "luciferase standard enzyme (10 µg/ml)" included in "PicaGene Luminescent Kit" (Toyo Ink Manufacturing Co., Ltd.; product No. PGL100) with "PicaGene Cell Lysis Reagent LUC" (Toyo Ink Manufacturing Co., Ltd.; product No. PGC50). 10 µl of this luciferase enzyme solution was taken into a cuvette of a luminometer (Berthold, LB9506). First, 100 µl of the "luciferase luminescent reagent" prepared above was added to the enzyme solution. Immediately after the addition, the resulting mixed solution was loaded onto the luminometer, and the quantity of light emitted (RLU/sec) was measured for the initial 200 seconds at intervals of 25 seconds. Then, the quantity of light emitted was measured in the same manner using the "luciferase luminescent reagent (+improvement)".

[2] = system: luciferin/luciferase luminescent reactions; settings: for Max RLU / Max Time: 1 mM in ATP luminescent reagent; for Max RLU%: relative to the reaction system without pyrophosphoric acid (no PPi)
Description: To a 5 ml aliquot of this reagent, pyrophosphoric acid (Wako Purechemical Industries, Ltd.) was added to give a final concentration of 1 mM. Subsequently, ATP standard reagent (ATP concentration = 1 x 10^-12 M) included in the kit was dispensed into a microtiter plate at 100 µl/well. […] The same operations were performed on ATP luminescent reagent without pyrophosphoric acid. Further, ATP luminescent reagent to which potassium pyrophosphate or sodium pyrophosphate was added at a final concentration of 1 mM instead of pyrophosphoric acid was also prepared, and the above-described operations were performed.

[3] = biological target: T1, luciferase standard enzyme; settings: 1.5mM PPiK; relative to w/o pyrophosphoric acid
Description: A "luciferase luminescent reagent" containing 20 mM tricine, 1.07 mM (MgCO3)4Mg(OH)2.5H2O, 2.67 mM magnesium sulfate, 0.1 mM EDTA, 33.3 mM DTT, 470 µM luciferin, 270 µM CoA and 530 µM adenosine triphosphate (ATP), pH 7.8 was prepared in accordance with the formulation described in the instructions included in "PicaGene Luminescent Kit" (Toyo Ink Manufacturing Co., Ltd.; product No. PGL100). […] Further, glycerol and DTT were allowed to co-exist in each of the above luminescent reagents at final concentrations of 10% and 1 mM, respectively, in order to promote the stabilization of luciferase enzyme.
A luciferase enzyme solution (100 ng/ml) was prepared by diluting "luciferase standard enzyme (10 µg/ml)" included in "PicaGene Luminescent Kit" (Toyo Ink Manufacturing Co., Ltd.; product No. PGL100) with "PicaGene Cell Lysis Reagent LUC" (Toyo Ink Manufacturing Co., Ltd.; product No. PGC50). 10 µl of this luciferase enzyme solution was dispensed into each well of a microtiter plate. Subsequently, 100 µl of the above-described luminescent reagent was added to the enzyme solution in each well. […] Since luciferin/luciferase luminescent reactions are greatly affected by temperature, all operations and measurements with a luminometer were performed in a thermostatic chamber set at 23°C.
Then, the above-described operations were repeated. […]

luciferase enzyme = assay: ATP assay, time course of light emission with ATP luminescent reagent (Example 3, microtiter plate, 23°C); assay type: biochemical; settings: 2 mM, added as organic sulfur reagent
Text: Then, the above-described operations were repeated.

T1 sequence (P08659 whole entry): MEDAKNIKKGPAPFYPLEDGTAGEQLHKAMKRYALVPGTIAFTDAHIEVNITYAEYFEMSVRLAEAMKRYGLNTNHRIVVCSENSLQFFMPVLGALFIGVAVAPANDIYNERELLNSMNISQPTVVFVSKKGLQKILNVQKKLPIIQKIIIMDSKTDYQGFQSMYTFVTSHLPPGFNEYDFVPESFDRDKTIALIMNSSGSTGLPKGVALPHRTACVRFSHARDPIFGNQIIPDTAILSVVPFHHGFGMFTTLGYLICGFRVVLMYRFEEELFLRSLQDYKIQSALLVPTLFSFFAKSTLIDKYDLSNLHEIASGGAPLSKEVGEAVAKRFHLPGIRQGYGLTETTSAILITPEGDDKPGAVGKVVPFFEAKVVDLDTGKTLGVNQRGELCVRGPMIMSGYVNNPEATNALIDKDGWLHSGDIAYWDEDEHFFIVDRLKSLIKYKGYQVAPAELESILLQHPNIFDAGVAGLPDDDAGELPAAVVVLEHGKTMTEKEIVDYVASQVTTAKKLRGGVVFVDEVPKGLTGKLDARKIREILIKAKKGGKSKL

Compound | Max RLU [1] [RLU] | Max Time [1] [min] | Max RLU% [1] [%] | Max RLU [2] [RLU] | Max Time [2] [min] | initial luminescence ([2]; 1 mM, relative to the initial luminescence with the ATP luminescent reagent) [%] | Max RLU% ([2]; 1 mM) [%] | time at which the quantity of light emitted reached the maximum value ([2]; after the start of the measurement) [min] | Max RLU% [3] [%] | effect on the stabilization of luminescent reactions (luciferase enzyme)
O=P(O)(O)OP(=O)(O)O [PPi, pyrophosphoric acid] | 67904.5 | 6 | 55.4 | 30874.3 | 5 | ≤ 50 | 48.9 | 5 |  | 
O=P([O-])([O-])OP(=O)([O-])[O-].[K+].[K+].[K+].[K+] [PPiK, potassium pyrophosphate] | 31448.0 | 12 | 25.6 | 16800.3 | 15 |  | 26.6 |  | 27.5 | 
O=P([O-])([O-])OP(=O)([O-])[O-].[Na+].[Na+].[Na+].[Na+] [PPiNa, sodium pyrophosphate] | 30290.8 | 12 | 24.7 | 15275.5 | 25 |  | 24.2 |  |  | 
CCN(CC)C(=S)[S-].[Na+] [organic sulfur reagent, sodium diethyldithiocarbamate] |  |  |  |  |  |  |  |  |  | no effect on the stabilization of luminescent reactions
